PubChem BioAssay (NCI)
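Cells were grown in 96-well plates and exposed to each compound for 48 hours at five concentrations; endpoints were interpolated linearly between bracketing concentrations, or set to the highest concentration if not reached. At the TGI there is no net growth.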

Columns and labels:
Test in all cases: inhibition of tumour cell growth, NCI panel, 48 h
[1] = tested on: PC-3 prostate
[2] = tested on: SR leukemia
[3] = tested on: SK-MEL-2 melanoma
[4] = tested on: SF-268 CNS
[5] = tested on: SN12C renal
[6] = tested on: A549 NSCLC
[7] = tested on: A498 renal
[8] = tested on: HS 578T breast
[9] = tested on: MDA-MB-435
[10] = tested on: U251 CNS
[11] = tested on: SK-MEL-28 melanoma
[12] = tested on: HCT-116 colon
[13] = tested on: SNB-75 CNS
[14] = tested on: OVCAR-3 ovarian
[15] = tested on: TK-10 renal
[16] = tested on: NCI-H226 lung
[17] = tested on: CAKI-1 renal
[18] = tested on: MOLT-4 leukemia
[19] = tested on: HCT-15 colon
[20] = tested on: NCI/ADR-RES ovarian
[21] = tested on: CCRF-CEM leukemia
[22] = tested on: UACC-62 melanoma
[23] = tested on: K-562 leukemia
[24] = tested on: ACHN renal
[25] = tested on: OVCAR-8 ovarian
[26] = tested on: HT29 colon
[27] = tested on: MCF7 breast
[28] = tested on: SW-620 colon
[29] = tested on: EKVX NSCLC
[30] = tested on: LOX IMVI melanoma
[31] = tested on: M14 melanoma
[32] = tested on: DU-145 prostate
[33] = tested on: SK-MEL-5 melanoma
[34] = tested on: SF-295 CNS
[35] = tested on: SNB-19 CNS
[36] = tested on: UACC-257 melanoma
[37] = tested on: SK-OV-3 ovarian
[38] = tested on: SF-539 CNS
[39] = tested on: HOP-62 NSCLC
[40] = tested on: COLO 205 colon
[41] = tested on: 786-0 renal
[42] = tested on: RPMI-8226 leukemia
[43] = tested on: OVCAR-4 ovarian
[44] = tested on: UO-31 renal
[45] = tested on: MDA-MB-231 breast
[46] = tested on: BT-549 breast
[47] = tested on: T-47D breast
[48] = tested on: NCI-H522 lung
[49] = tested on: OVCAR-5 ovarian
[50] = tested on: KM12 colon
[51] = tested on: IGROV1 ovarian
[52] = tested on: HL-60(TB) leukemia
[53] = tested on: MDA-N
[54] = tested on: HCC-2998 colon
[55] = tested on: NCI-H23 lung
[56] = tested on: NCI-H460 lung
[57] = tested on: HOP-92 NSCLC
[58] = tested on: RXF 393 renal
[59] = tested on: MALME-3M melanoma

Structure (SMILES): COC(=O)C=Cc1ccc2nncnc2c1 (mixture of isomers)
- TGI [1]: > 100 µM
- TGI [2]: > 100 µM
- TGI [3]: > 100 µM
- TGI [4]: > 100 µM
- TGI [5]: > 100 µM
- TGI [6]: 56.4 µM
- TGI [7]: > 100 µM
- TGI [8]: > 100 µM
- TGI [9]: 35.5 µM
- TGI [10]: > 100 µM
- TGI [11]: > 100 µM
- TGI [12]: > 100 µM
- TGI [13]: 55.1 µM
- TGI [14]: > 100 µM
- TGI [15]: > 100 µM
- TGI [16]: > 100 µM
- TGI [17]: > 100 µM
- TGI [18]: > 100 µM
- TGI [19]: > 100 µM
- TGI [20]: > 100 µM
- TGI [21]: > 100 µM
- TGI [22]: 32.2 µM
- TGI [23]: > 100 µM
- TGI [24]: > 100 µM
- TGI [25]: > 100 µM
- TGI [26]: > 100 µM
- TGI [27]: > 100 µM
- TGI [28]: > 100 µM
- TGI [29]: > 100 µM
- TGI [30]: > 100 µM
- TGI [31]: 42.6 µM
- TGI [32]: > 100 µM
- TGI [33]: 20.8 µM
- TGI [34]: 64.3 µM
- TGI [35]: > 100 µM
- TGI [36]: 36.3 µM
- TGI [37]: > 100 µM
- TGI [38]: > 100 µM
- TGI [39]: > 100 µM
- TGI [40]: > 100 µM
- TGI [41]: > 100 µM
- TGI [42]: > 100 µM
- TGI [43]: > 100 µM
- TGI [44]: > 100 µM
- TGI [45]: > 100 µM
- TGI [46]: > 100 µM
- TGI [47]: > 100 µM
- TGI [48]: > 100 µM
- TGI [49]: > 100 µM
- TGI [50]: 99 µM
- TGI [51]: > 100 µM
- TGI [52]: > 100 µM
- TGI [53]: 46.1 µM

Structure (SMILES): N#C[C@H](c1nc2ccccc2s1)c1nc2ccccc2nc1Cl
- TGI [1]: > 100 µM
- TGI [2]: > 100 µM
- TGI [3]: > 100 µM
- TGI [5]: > 100 µM
- TGI [54]: 7.09 µM
- TGI [6]: > 100 µM
- TGI [7]: > 100 µM
- TGI [8]: > 100 µM
- TGI [55]: 32.3 µM
- TGI [9]: > 100 µM
- TGI [10]: > 100 µM
- TGI [11]: > 100 µM
- TGI [12]: > 100 µM
- TGI [13]: > 100 µM
- TGI [14]: 38.9 µM
- TGI [16]: > 100 µM
- TGI [17]: > 100 µM
- TGI [18]: > 100 µM
- TGI [56]: 47.3 µM
- TGI [19]: 22.9 µM
- TGI [20]: > 100 µM
- TGI [21]: > 100 µM
- TGI [22]: 31.4 µM
- TGI [24]: 29.8 µM
- TGI [25]: > 100 µM
- TGI [26]: > 100 µM
- TGI [27]: 24.8 µM
- TGI [28]: > 100 µM
- TGI [57]: 37.9 µM
- TGI [29]: > 100 µM
- TGI [31]: 34.1 µM
- TGI [33]: > 100 µM
- TGI [34]: 35.7 µM
- TGI [35]: > 100 µM
- TGI [36]: 43.3 µM
- TGI [37]: 73 µM
- TGI [38]: > 100 µM
- TGI [39]: 77.1 µM
- TGI [40]: > 100 µM
- TGI [41]: > 100 µM
- TGI [58]: 32 µM
- TGI [42]: > 100 µM
- TGI [43]: 34.1 µM
- TGI [44]: 52 µM
- TGI [45]: > 100 µM
- TGI [46]: 21.4 µM
- TGI [47]: > 100 µM
- TGI [48]: > 100 µM
- TGI [59]: > 100 µM
- TGI [49]: 39 µM
- TGI [50]: > 100 µM
- TGI [51]: > 100 µM
- TGI [52]: > 100 µM
- TGI [53]: > 100 µM
